In publication PMC6376162, “HEXIM1 Peptide Exhibits Antimicrobial Activity Against Antibiotic Resistant Bacteria Through Guidance of Cell Penetrating Peptide” (Frontiers in Microbiology, 2019):
Values after ≈ are worked out from the molar mass of the structure shown. Residues, ends and D or L forms follow the SMILES beside them.

Key:
P. aeruginosa 544 = type: cell-based, Pseudomonas aeruginosa; conditions: 544, 20 h
Method: (§1) Bacterial strains were either purchased from American Type Culture Collection (ATCC, United States) or provided by National University Hospital, Singapore. Prior to assays, all bacteria, except for Enterococcus faecalis, were grown overnight to stationary phase at 37°C in Luria Bertani (LB) broth (Novagen, Germany). The overnight cultures were 10-fold diluted in fresh cation-adjusted Mueller Hinton II broth (MHBII) (Becton Dickinson, United States) and grown for additional few hours at 37°C to obtain mid-log phase culture. E. faecalis strains were grown in M17 broth (Becton Dickenson, United States) for both overnight and mid-log phase culturing. Human keratinocyte cell line, HaCaT, was purchased from Creative Bioarray (United States) and cultured in Dulbecco’s Modified Eagle’s medium with 4.5 g/L glucose, 2 mM L-glutamine, and 10% fetal bovine serum.
(§2) Minimum inhibition concentrations (MICs) were determined by using broth microdilution method in a 96-well microtiter plate according to guidelines of the Clinical and Laboratory Standards Institute ([CLSI, 2012]). Briefly, mid-log phase cultures were diluted with MHBII and added to wells containing serially diluted peptides to give final cell concentration of 5 × 10^5 cells ml^−1. Peptides were prepared in twofold serial dilution series to give a final concentration range from 2 to 128 μM. Cecropin P1 (CECP1) and Cap11-1-18m^2 (CapM2) treated cells were used as positive controls, while untreated cells were used as a negative control.
(§3) To further assess the potency of peptides, wells with no visible growth from MIC tests were subsequently plated on LB agar plates and incubated overnight at 37°C. […] Both MIC and MBC assays were conducted on three to five separate occasions and if results were within one doubling dilutions of each other, the highest reading was recorded for analysis.

E. faecalis VRE = type: cell-based, Enterococcus faecalis; conditions: 20 h
Method: as §1, §2, §3

S. aureus 43300 = type: cell-based, Staphylococcus aureus; conditions: 43300, 20 h
Method: as §1, §2, §3

[1] = tested on: Enterococcus faecalis SEN; type: cell-based; conditions: 20 h
Method: as §1, §2, §3

Escherichia coli 25922 = type: cell-based; conditions: 25922, 20 h
Method: as §1, §2, §3

Escherichia coli BAA2523 = type: cell-based; conditions: BAA2523, 20 h
Method: as §1, §2, §3

[2] = tested on: Pseudomonas aeruginosa 27853; type: cell-based; conditions: 27853, 20 h
Method: as §1, §2, §3

[3] = tested on: Staphylococcus aureus 29213; type: cell-based; conditions: 29213, 20 h
Method: as §1, §2, §3

[4] = tested on: panel of antibiotic sensitive and resistant bacteria; type: cell-based; conditions: 20 h
Method: as §1, §2, §3

[5] = tested on: HaCaT human keratinocyte cell line; test: Viability assay for mammalian cells (CellTiter-Glo); type: cell-based; conditions: overnight; for cytotoxicity against HaCat cells: 30 μM; for toxicity against HaCaT cells at the highest concentration: 100 μM
Method: as §1
HaCat cells (1 × 10^5 cells mL^−1) were seeded in a 96-well clear-bottomed white plate (Corning) in Dulbecco’s Modified Eagle’s medium with 4.5 g/L glucose, 2 mM L-glutamine, and 10% fetal bovine serum and incubated overnight at 37°C. On the following day, cells were treated with the indicated peptides at serial-diluted concentrations and incubated overnight. CellTiter-Glo reagent (Promega) was utilized to determine the cell viability based on the manufacturer’s instructions.

[6] = tested on: bacterial translation (E. coli lysate); test: In vitro protein synthesis assay (RTS 100 E. coli HY Kit, GFP, Western blot); type: biochemical, Escherichia coli; conditions: 10 μM streptomycin, RTS with 5 μg GFP mRNA, 30°C, 6 h; positive control
Method: The method to study the effect of peptide treatment on in vitro expression of protein was adapted from previous study ([Taniguchi et al., 2016]). RTS^TM 100 E. coli HY Kit (biotechrabbit) was used as a cell-free rapid translation system (RTS) to express green fluorescent protein (GFP) with or without peptide treatment. Streptomycin (Sigma-Aldrich), an antibiotic functioning as an inhibitor of bacterial translation, was used as a positive control. Reaction mixture was prepared as described in the product manual. For the negative control, the remaining 10 μl was topped up with nuclease-free water while for the other reactions, the 10 μl consists of 5 μg GFP mRNA and either nuclease-free water or the indicated treatment (100 μM Pen, Pen-BR, Pen-RRR, CapM2 or 10 μM Streptomycin). Reaction was incubated at 30°C for 6 h before being analyzed with Western blot for the protein level of GFP. To obtain GFP mRNA, control GFP expression vector was first linearized using ApaLI restriction enzyme (New England Biolabs) and then separated via agarose gel electrophoresis. Fragment containing the linearized GFP expression vector was retrieved using FavorPrep GEL Purification Kit (FAVORGEN Biotech Corp.) and subsequently used as the template for MEGAscript^TM T7 Transcription Kit (Thermo Fisher Scientific) to generate GFP mRNA. […]

mammalian cells = tested on: mammalian cells; design: method as in Neo et al., 2016; conditions: cited from earlier work

MIC (E. faecalis VRE) [µM]	MIC [1] [µM]	MIC (Escherichia coli 25922) [µM]	MIC (Escherichia coli BAA2523) [µM]	MIC [2] [µM]	MIC [3] [µM]	Compound	MBC (P. aeruginosa 544) [µM]	MBC (E. faecalis VRE) [µM]	MBC [1] [µM]	MBC (Escherichia coli 25922) [µM]	MBC (Escherichia coli BAA2523) [µM]	MBC [2] [µM]	MBC [3] [µM]	cytotoxicity against HaCat cells [5]	toxicity against HaCaT cells at the highest concentration [5]	other results
16 (≈ 40.4 µg/mL)	32 (≈ 80.7 µg/mL)	64 (≈ 161 µg/mL)	>128	>128	32 (≈ 80.7 µg/mL)	CC(C)C[C@H](NC(=O)[C@@H](N)CCC(N)=O)C(=O)NCC(=O)N[C@@H](CCCNC(=N)N)C(=O)N[C@@H](CCCNC(=N)N)C(=O)N[C@@H](CCCNC(=N)N)C(=O)N[C@@H](Cc1c[nH]cn1)C(=O)N[C@@H](CCCNC(=N)N)C(=O)N[C@@H](CCCNC(=N)N)C(=O)N[C@@H](CCCNC(=N)N)C(=O)N1CCC[C@H]1C(=O)N[C@@H](CO)C(=O)N[C@@H](CCCNC(=N)N)C(=O)N[C@@H](CCCNC(=N)N)C(=O)N[C@@H](CCCNC(=N)N)C(=O)N[C@@H](CCCNC(=N)N)C(=O)N[C@@H](Cc1c[nH]cn1)C(=O)N[C@@H](Cc1c[nH]c2ccccc12)C(=O)O [BR-RRR12] (H-QLGRRRHRRRPSRRRRHW-OH)	>128	>128	>128	64 (≈ 161 µg/mL)	>128	>128	>128			MIC (S. aureus 43300): 16 µM (≈ 40.4 µg/mL); MICs (range over inhibited strains) [4]: 16 to 64 µM
						CC[C@H](C)[C@H](NC(=O)[C@H](CCCCN)NC(=O)[C@@H](NC(=O)[C@H](CCC(N)=O)NC(=O)[C@@H](N)CCCNC(=N)N)[C@@H](C)CC)C(=O)N[C@@H](Cc1c[nH]c2ccccc12)C(=O)N[C@@H](Cc1ccccc1)C(=O)N[C@@H](CCC(N)=O)C(=O)N[C@@H](CC(N)=O)C(=O)N[C@@H](CCCNC(=N)N)C(=O)N[C@@H](CCCNC(=N)N)C(=O)N[C@@H](Cc1c[nH]c2ccccc12)C(=O)NCC(=O)NCC(=O)N[C@@H](CCC(N)=O)C(=O)N[C@@H](CC(C)C)C(=O)NCC(=O)N[C@@H](CCCNC(=N)N)C(=O)N[C@@H](CCCNC(=N)N)C(=O)N[C@@H](CCCNC(=N)N)C(=O)N[C@@H](Cc1c[nH]cn1)C(=O)N[C@@H](CCCNC(=N)N)C(=O)N[C@@H](CCCNC(=N)N)C(=O)N[C@@H](CCCNC(=N)N)C(=O)N1CCC[C@H]1C(=O)N[C@@H](CO)C(=O)N[C@@H](CCCNC(=N)N)C(=O)N[C@@H](CCCNC(=N)N)C(=O)N[C@@H](CCCNC(=N)N)C(=O)N[C@@H](CCCNC(=N)N)C(=O)N[C@@H](Cc1c[nH]cn1)C(=O)N[C@@H](Cc1c[nH]c2ccccc12)C(=O)O [Pen-RRR] (H-RQIKIWFQNRRWGGQLGRRRHRRRPSRRRRHW-OH)								little or no cytotoxicity	toxic activity	
						CC[C@H](C)[C@H](NC(=O)[C@H](CCCCN)NC(=O)[C@@H](NC(=O)[C@H](CCC(N)=O)NC(=O)[C@@H](N)CCCNC(=N)N)[C@@H](C)CC)C(=O)N[C@@H](Cc1c[nH]c2ccccc12)C(=O)N[C@@H](Cc1ccccc1)C(=O)N[C@@H](CCC(N)=O)C(=O)N[C@@H](CC(N)=O)C(=O)N[C@@H](CCCNC(=N)N)C(=O)N[C@@H](CCCNC(=N)N)C(=O)N[C@@H](Cc1c[nH]c2ccccc12)C(=O)NCC(=O)NCC(=O)N[C@@H](CCC(N)=O)C(=O)N[C@@H](CC(C)C)C(=O)NCC(=O)N[C@@H](CCCCN)C(=O)N[C@@H](CCCCN)C(=O)N[C@@H](CCCCN)C(=O)N[C@@H](Cc1c[nH]cn1)C(=O)N[C@@H](CCCNC(=N)N)C(=O)N[C@@H](CCCNC(=N)N)C(=O)N[C@@H](CCCNC(=N)N)C(=O)N1CCC[C@H]1C(=O)N[C@@H](CO)C(=O)N[C@@H](CCCCN)C(=O)N[C@@H](CCCCN)C(=O)N[C@@H](CCCCN)C(=O)N[C@@H](CCCNC(=N)N)C(=O)N[C@@H](Cc1c[nH]cn1)C(=O)N[C@@H](Cc1c[nH]c2ccccc12)C(=O)O [Pen-BR] (H-RQIKIWFQNRRWGGQLGKKKHRRRPSKKKRHW-OH)								little or no cytotoxicity	toxic activity	effect on HaCaT cells under lower concentrations ([5]; below 100 μM (10, 30, 50 μM)): did not cause any significant effects
						[H]/N=C(/N)N[C@H]1[C@H](O)[C@@H](O)[C@H](O[C@@H]2O[C@@H](C)[C@](O)(C=O)[C@H]2O[C@@H]2O[C@@H](CO)[C@H](O)[C@@H](O)[C@@H]2NC)[C@@H](N/C(N)=N\[H])[C@@H]1O [streptomycin, Streptomycin]										synthesis of GFP protein (Western blot) [6]: significant inhibition
>128	>128	>128	>128	>128	128 (≈ 301 µg/mL)	CC(C)C[C@H](NC(=O)[C@@H](N)CCC(N)=O)C(=O)NCC(=O)N[C@@H](CCCCN)C(=O)N[C@@H](CCCCN)C(=O)N[C@@H](CCCCN)C(=O)N[C@@H](Cc1c[nH]cn1)C(=O)N[C@@H](CCCNC(=N)N)C(=O)N[C@@H](CCCNC(=N)N)C(=O)N[C@@H](CCCNC(=N)N)C(=O)N1CCC[C@H]1C(=O)N[C@@H](CO)C(=O)N[C@@H](CCCCN)C(=O)N[C@@H](CCCCN)C(=O)N[C@@H](CCCCN)C(=O)N[C@@H](CCCNC(=N)N)C(=O)N[C@@H](Cc1c[nH]cn1)C(=O)N[C@@H](Cc1c[nH]c2ccccc12)C(=O)O [BR] (H-QLGKKKHRRRPSKKKRHW-OH)	>128	>128	>128	>128	>128	>128	>128			MIC (P. aeruginosa 544): >128 µM; MBC (S. aureus 43300): >128 µM; cytotoxic effects on mammalian cells (mammalian cells): failed to cause any detectable cytotoxic effects
